Assays:
[1] = system: Trypanosoma brucei brucei; assay: Antitrypanosomal activity against tbAT1 deficient Trypanosoma brucei brucei at 100 uM after 2 days by alamar blue assay; assay type: functional, organism-based
[2] = system: Trypanosoma brucei brucei; assay: Antitrypanosomal activity against wild type Trypanosoma brucei brucei expressing P2 transporter at 100 uM after 2 days by alamar blue assay; assay type: functional, organism-based

Compound: CC(Nc1nc(N)nc(N)n1)C(=O)OC(CN)CON.Cl.Cl (centres undefined)
- EC50 [1]: Not Active

Compound: Cl.Cl.NCC(CON)OC(=O)CCNc1nc(N)nc(N)n1 (centres undefined)
- EC50 [1]: Not Active

Compound: Cl.Cl.NCC(O)CON (centres undefined)
- EC50 [2]: Not Active

Compound: Cl.Cl.NCC(CON)OC(=O)CNc1nc(N)nc(N)n1 (centres undefined)
- EC50 [1]: Not Active

From ChEMBL document CHEMBL1208752, “Selective delivery of 2-hydroxy APA to Trypanosoma brucei using the melamine motif” (Bioorg Med Chem Lett, 2010)
